{
  "source": "paper PMC8298375",
  "about": "(Naunyn-Schmiedeberg's Archives of Pharmacology, 2021)",
  "format_in_all_cases": "in vivo, Wistar rats",
  "key": {"[1]": {"assay": "Pharmacokinetic study in scopolamine-induced amnesic rats (plasma)", "conditions": "for Absolute F: absolute bioavailability; for Cl_F_obs: clearance; for DN Cmax: dose-normalised Cmax; for Vz_F_obs: volume of distribution", "experimental": "Samples were then centrifuged at 10,000 rpm for 5 min, and plasma was stored at − 70 °C until analysis.\nBriefly, to an aliquot of 100 µL of rat plasma, 10 µL of IS (1 µg/mL) was added and vortexed for 30 s. Then, 1 mL of TBME tertiary methyl butyl ether) was added and vortexed for 10 min, thereafter centrifuged at 10,000 rpm for 5 min. From the supernatant, 0.9 mL of organic solvent was aspirated and evaporated in a turbo evaporator (Zymark, Hopkinton, MA, USA) at 50 ± 2 °C under the stream of nitrogen. The dried residue was reconstituted with 150 µL of mobile phase, and 50 µL was injected for the HPLC analysis. A full validation according to the US-FDA guidelines was performed in rat plasma. Plasma samples were analyzed by previously validated HPLC with fluorescence detection method (Arumugam [2011]).\nHPLC analysis was carried out on Shimadzu LC-20AD Prominence (Shimadzu Corporation, Kyoto, Japan) equipped with LC-20AD pump, RF-10A-XL fluorescence detector, column oven (CTO-10AS VP), autosampler SIL-20AC HT, and LC solution version 1.24 SP1. The column oven temperature was maintained at 25 °C. The chromatographic separation was achieved by Intersil, ODS-3 V, C18 (250 × 4.6 mm, 5 µm) column (GL Sciences Inc., Japan). Isocratic elution was performed with ammonium acetate buffer (20 mM, pH 4.5) and acetonitrile 74:26 (v/v) as mobile phase. The flow rate was maintained at 1 mL/min, and the injection volume was 50 µL. Fluorimetric detection was used, and excitation and emission wavelength were 220 nm and 293 nm, respectively. The sensitivity of the detector was “medium”, and the response kept at 3. Venlafaxine (IS) was prepared separately in methanol to yield primary standard solutions with a concentration of 1 mg/mL.\nThe pharmacokinetic parameters were calculated using non-compartmental analysis, PK solution 2.1software (Summit Research Services, Montrose, Colorado, USA). The area under the curve (AUC) from zero to infinity is calculated using the trapezoidal method. The terminal elimination rate constant (β) was obtained by plotting log-linear concentration versus time; the corresponding half-life (t1/2β) was calculated by 0.693/β. […] The clearance (CL) and volume of distribution (Vd) were calculated as follows: CL=Dose/AUC0-∞,Vd(apparent)=CL/β"}, "[2]": {"system": "scopolamine-induced amnesia rats", "assay": "Locomotor activity (photoactometer), scopolamine-induced amnesia", "conditions": "scopolamine model, Mean ± SEM, photo beam counts for 5 min", "experimental": "(§1) In the acute model, the rats were trained for Morris water maze (MWM) and passive avoidance test (PAT) tasks in the first 4 days. On the 5th day, 30 min after scopolamine administration, respective treatments were given to all the groups. Fifteen minutes thereafter, the test trials were conducted in MWM and PAT.\nLocomotor activity was assessed in animals using a digital photoactometer (INCO, India) which contains a cage that is 30-cm long and 30-cm deep with a wire mesh at the bottom. The apparatus was placed in a dark, light, and sound attenuated testing room. Before the locomotor task, animals were placed individually in the activity meter for 3 min for habituation. Then, the ambulatory movements were recorded for 5 min and expressed in terms of total photo beam counts for 5 min per animal."}, "[3]": {"system": "ICV colchicine-induced dementia rats", "assay": "Locomotor activity (photoactometer), colchicine-induced dementia", "conditions": "colchicine model, Mean ± SEM, photo beam counts for 5 min", "experimental": "In the chronic model, the rats were trained for MWM and PAT tasks for the first 4 days followed by intracerebroventricular (i.c.v.) administration of colchicine on day 6. After establishing dementia on day 10 of the colchicine administration, the drug treatment was initiated from day 11 to 24. The effects of different drug treatments on dementia were assessed on days 14 and 21. On these particular days, the swim test was performed 15 min after the administration of different treatments and escape latencies; residence time and peripheral swim time were recorded (Nampoothiri [2017]). The retention trials for PAT on day 17 and 23 were performed on days 17 and 23, 15 min after the administration of the drug.\nOn the 6th day, surgery was performed as described (Bokare et al. [2018]). Rat was anesthetized with sodium pentobarbital (45 mg/kg, i.p.) and positioned in stereotaxic apparatus. The head was positioned in a frame, and a midline sagittal incision was made in the scalp. […]\nLocomotor activity was assessed in animals using a digital photoactometer (INCO, India) which contains a cage that is 30-cm long and 30-cm deep with a wire mesh at the bottom. […] Then, the ambulatory movements were recorded for 5 min and expressed in terms of total photo beam counts for 5 min per animal."}, "[4]": {"system": "scopolamine-induced amnesia rats", "assay": "Morris water maze test, scopolamine-induced amnesia (acute model)", "conditions": "scopolamine 1 mg/kg i.p., Mean ± SEM; for Escape latency: test 15 min after treatment", "experimental": "as §1\nA modified Morris water maze test was used (Nampoothiri [2017]). The pool was positioned in the middle of a dimly lit testing room with distant visual clues that could be used by rats for spatial orientation. The maze consisted of a circular water pool (140 × 45 cm) divided into four equally sized quadrants (NE, SE, SW, and NW) by two imaginary diagonal lines running across the center of the pool. The pool was filled with water maintained at a temperature of 23 ± 2 °C. In the NE quadrant (target quadrant) equidistant from the center and edge of the pool, a platform of 25-cm height and 10-cm diameter was invisibly placed submerged 1 cm below the water surface. Rats were gently placed in each quadrant facing the wall and trained to locate the hidden black platform, and the trial was terminated when the rat reached the platform or after 60 s. Accordingly, rats were subjected to one session of four trials per day for four consecutive days. All rats were left on the platform for 30 s and then removed and towel dried. Inter-trial interval was kept a constant 180 s throughout the study. In the probe trial, platform was removed, and rats were allowed to swim for a 60-s trial period. Data was collected in the form of escape latencies to find the platform; percent of time spent over the target quadrant."}, "[5]": {"conditions": "Wistar, rat, oral (ORSM), other: intranasal (INRSM)"}},
  "note": "Read-outs that look alike come from different tables or passages of the source.",
  "data": [
    {"smiles": "CCN(C)C(=O)Oc1cccc([C@H](C)N(C)C)c1", "note": "[ORSM, rivastigmine]", "values": [
      {"measurement": "MRT", "setting": "[1]; Wistar, rat, oral (ORSM), other: intranasal (INRSM), read-out: MRT (converted)", "value": 27.6, "unit": "min"},
      {"measurement": "clearance", "setting": "[1]; Wistar, rat, oral, 2.5 mg/kg, read-out: clearance rate", "value": "1500 ± 760", "unit": "mL/min"},
      {"measurement": "Vd", "setting": "[1]; Wistar, rat, oral, 2.5 mg/kg, read-out: volume of distribution", "value": "29.2 ± 14.3", "unit": "L/kg"},
      {"measurement": "Tmax", "setting": "[1]; Wistar, rat, po", "value": 15, "unit": "min"},
      {"measurement": "half-life", "setting": "[1]; Wistar, rat, po", "value": "13.5 ± 5.79", "unit": "min"},
      {"measurement": "k el", "setting": "[1]; Wistar, rat, po", "value": 0.000857, "unit": "s⁻¹"},
      {"measurement": "AUC(0-inf)", "setting": "[1]; Wistar, rat, po, 2.5 mg/kg", "value": 27.7, "unit": "ng·h/mL"},
      {"measurement": "Cmax", "setting": "[1]; Wistar, rat, po, 2.5 mg/kg", "value": "56.3 ± 27.1", "unit": "ng/mL"},
      {"measurement": "Absolute F", "setting": "[1]", "value": "4.39 ± 1.82", "unit": "%"},
      {"measurement": "Absolute F", "setting": "[1]; listed as oral rivastigmine", "value": "4.39 ± 1.82", "unit": "%"},
      {"measurement": "Cl_F_obs", "setting": "[1]", "value": "1502.59 ± 763.25", "unit": "mL/min"},
      {"measurement": "DN Cmax", "setting": "[1]", "value": "22.51 ± 10.82", "unit": "ng/mL"},
      {"measurement": "Vz_F_obs", "setting": "[1]", "value": "29.23 ± 14.35", "unit": "L"},
      {"measurement": "Score on actophotometer", "setting": "[2]; listed as SCP + ORSM", "value": "238.16 ± 20.88"},
      {"measurement": "Score on actophotometer", "setting": "[3]; listed as COL + ORSM", "value": "240.00 ± 19.54"},
      {"measurement": "Escape latency", "setting": "[4]; listed as SCP + ORSM", "value": "3.89 ± 0.44", "unit": "s"}
    ]},
    {"smiles": "CCN(C)C(=O)Oc1cccc([C@H](C)N(C)C)c1", "note": "[INRSM, rivastigmine]", "values": [
      {"measurement": "MRT", "setting": "[1]", "value": "32.12 ± 16.46", "unit": "min"},
      {"measurement": "Cmax", "setting": "[1]; Wistar, rat, inhaled or intranasal, 2 mg/kg", "value": "994 ± 471", "unit": "ng/mL"},
      {"measurement": "Tmax", "setting": "[1]; [5]", "value": 5, "unit": "min"},
      {"measurement": "half-life", "setting": "[1]; [5]", "value": "30.5 ± 10.8", "unit": "min"},
      {"measurement": "k el", "setting": "[1]; [5]", "value": 0.000378, "unit": "s⁻¹"},
      {"measurement": "AUC(0-inf)", "setting": "[1]; Wistar, rat, other: intranasal, 2 mg/kg", "value": 330, "unit": "ng·h/mL"},
      {"measurement": "Absolute F", "setting": "[1]", "value": "65.44 ± 14.57", "unit": "%"},
      {"measurement": "Cl_F_obs", "setting": "[1]", "value": "100.95 ± 36.47", "unit": "mL/min"},
      {"measurement": "DN Cmax", "setting": "[1]", "value": "497.23 ± 235.52", "unit": "ng/mL"},
      {"measurement": "Vz_F_obs", "setting": "[1]", "value": "4.45 ± 1.72", "unit": "L"},
      {"measurement": "Score on actophotometer", "setting": "[2]; listed as SCP + INRSM", "value": "296.50 ± 17.68"},
      {"measurement": "Score on actophotometer", "setting": "[3]; listed as COL + INRSM", "value": "265.66 ± 17.95"},
      {"measurement": "Peripheral swim time", "setting": "[4]; listed as SCP + INRSM", "value": "34.22 ± 0.74", "unit": "s"},
      {"measurement": "Escape latency", "setting": "[4]; listed as SCP + INRSM", "value": "3.11 ± 0.36", "unit": "s"}
    ]}
  ]
}
